Measurements taken from patent US20190322676A1, “CERAMIDE GALACTOSYLTRANSFERASE INHIBITORS FOR THE TREATMENT OF DISEASE” (BioMarin Pharmaceutical Inc., priority 2016, published 2019).
Structures can show the parent of a compound that is named as a salt.

Molecular target: T1, human CGT (ceramide galactosyltransferase), CHO/CGT lysate (Homo sapiens, UniProt Q16880)
T1 construct: Full-length human CGT cDNA was cloned into the BamH1/Xho1 site of pcDNA3.1 (+); expressed in transfected cells; host or cells: Chinese hamster ovary (CHO) cells; lysate prepared with M-PER
T1 sequence (Q16880 21-541): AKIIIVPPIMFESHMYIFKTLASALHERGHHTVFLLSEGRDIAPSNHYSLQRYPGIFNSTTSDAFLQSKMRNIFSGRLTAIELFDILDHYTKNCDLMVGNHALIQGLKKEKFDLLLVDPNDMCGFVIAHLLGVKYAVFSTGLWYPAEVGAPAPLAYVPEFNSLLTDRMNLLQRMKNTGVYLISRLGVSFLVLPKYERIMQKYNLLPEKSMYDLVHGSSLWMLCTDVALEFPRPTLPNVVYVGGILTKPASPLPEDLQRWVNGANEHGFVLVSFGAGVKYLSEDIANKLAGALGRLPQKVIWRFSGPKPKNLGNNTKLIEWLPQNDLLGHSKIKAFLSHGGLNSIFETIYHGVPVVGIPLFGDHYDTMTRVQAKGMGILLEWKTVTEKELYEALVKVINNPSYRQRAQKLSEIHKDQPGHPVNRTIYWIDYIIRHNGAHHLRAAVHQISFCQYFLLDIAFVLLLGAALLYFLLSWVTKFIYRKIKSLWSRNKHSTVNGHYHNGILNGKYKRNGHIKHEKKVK
Test: CGT enzyme assay, LC-MS/MS readout (Table 1 ranges without asterisk)
Format: biochemical
Settings: LC-MS/MS method (range without asterisk)
Protocol: Full-length human CGT cDNA was cloned into the BamH1/Xho1 site of pcDNA3.1 (+) mammalian expression vector (V90-20, Invitrogen, Carlsbad, Calif.) and the plasmid was transfected into Chinese hamster ovary (CHO) cells. Lysate was prepared using M-PER (Mammalian Protein Extraction Reagent, ThermoFisher Scientific, Grand Island, N.Y.) in the presence of a protease inhibitor cocktail (P8340, Sigma, Saint Louis, Mo.). Each 100 mm dish (100% confluent, approximately 1×10^7 cells) was lysed with 250 μL of M-PER containing protease inhibitors. Protein concentration was determined using a Pierce BCA protein assay kit (ThermoFisher Scientific). Four micrograms of CHO/CGT lysate was incubated with various concentrations of a compound (0.001 μM-50 μM) in 10 mM HEPES (pH 7.2) containing 35 μM dioleoylphosphatidylcholine, 5 mM MgCl2, 5 mM MnCl2, 1% BSA, 15 mM KCl, 1 mM EGTA, 8 mM CHAPS, 10 μM C6-NBD-dihydro-ceramide and 17.5 μM UDP-galactose in a final reaction volume of 20 μL at 37° C. for 1 hour. The final concentration of DMSO was 0.5% in both compound-treated and mock-treated samples. Tween 80 (0.01%) was optionally added to the reaction mixture to help solubilize the compounds. Each individual reaction was diluted with 80 μL of methanol:acetronitrile (1:3) containing 5 μM N-docdecanoyl-NBD-galactosylceramide (internal standard) to stop the reaction. 200 μL H2O:acetonitile (1:1) was added to precipitate the protein. After sufficient mixing, the plates were centrifuged at 2469 g for 38 minutes, 200 μL of supernatant was transferred to a LC/MS 96-deep well plate and a second spin was performed at 2469 g for 10 minutes. The final supernatant was injected in triplicate for RapidFire/MS/MS analysis.
An alternative LC-MS/MS based method was also used. For the LC-MS/MS readout, the CGT assay was identical to the one described above except for the following: […] was used as the CGT enzyme source, C12:0 (2R—OH) ceramide was used as the ceramide substrate and 0.3 μM Cl2 ceramide was used as the internal standard. Tween 80 was not present in the reaction mixture. The final supernatant was injected for LC-MS/MS analysis.
Quantitative analysis using the LC-MS/MS method: The quantitative analysis of C12:0 (2R—OH) ceramide and C12:0 (2R—OH) galactosylceramide by LC-MS/MS was performed on a Shimadzu ultra-fast liquid chromatography (Shimadzu, Japan) coupled with API 4000 mass spectrometer (Applied Biosystems, Concord, Ontario, Canada). Analyst 1.5 software packages (Applied Biosystems) were used to control the LC-MS/MS system, as well as for data acquisition and processing. 10 μL of sample was loaded onto a Luna C18 column (50 mm×2.0 mm, I.D. 3 μm, 100A) (Phenomenex, USA) for chromatographic separation. Mobile phase A consisted of HPLC grade water with 0.1% formic acid (v/v) and mobile phase B consisted of acetonitrile supplemented with 0.1% formic acid (v/v). The separation was achieved using the following gradient program at a flow rate of 0.8 mL/min: the initial mobile phase was 70% B, which was increased in a linear fashion to 95% B in 1.50 min, and then maintained at 95% B until 3.50 min. The mobile phase was then reset to 70% B within 0.01 min, and maintained until 4.50 min. The total run time was 4.50 min. The MS/MS detection was performed in ESI positive mode. The mass transition selected for quantification was m/z 498.5-264.3 for C12:0 (2R—OH) ceramide under the collision energy of 38.8 V, and the mass transition of C12:0 (2R—OH) galactosylceramide was m/z 660.6-264.5 under the collision energy of 51 V. The mass transition of Cl2 ceramide which was used as internal standard was m/z 482.4-264.3 under the collision energy of 33V. Compound IC50 values were calculated using a protocol identical to the one described for the RapidFire method (see Table 1, where data ranges without an asterix correspond to analysis using the LC-MS/MS method).
Using the above CGT enzyme and CGT cellular assays, the compounds of Table 1 were tested. […]

## CC[C@H](C)Oc1ccc2cc(S(=O)(=O)N[C@@H](C(=O)N3C4CCC3CC(N)C4)C(F)(F)c3ccc(Br)cc3)ccc2c1 (stereo partly drawn) [Compound 13-2, N-((2S)-3-(3-amino-8-azabicyclo[3.2.1]octan-8-yl)-1-(4-bromophenyl)-1,1-difluoro-3-oxopropan-2-yl)-6-((S)-sec-butoxy)naphthalene-2-sulfonamide]
  IC50: 10 to 30 µM

## CC[C@H](C)Oc1ccc2cc(S(=O)(=O)N[C@H](C(=O)N3C4CCC3CC(N)C4)C(F)(F)c3ccc(Br)cc3)ccc2c1 (stereo partly drawn) [Compound 13-3, N-((2R)-3-(3-amino-8-azabicyclo[3.2.1]octan-8-yl)-1-(4-bromophenyl)-1,1-difluoro-3-oxopropan-2-yl)-6-((S)-sec-butoxy)naphthalene-2-sulfonamide]
  IC50: 1 to 10 µM

## CC[C@@H](C)Oc1ccc2cc(S(=O)(=O)N[C@@H](C(=O)N3C4CCC3CC(N)C4)C(F)(F)c3ccc(Br)cc3)ccc2c1 (stereo partly drawn) [Compound 13-4, N-((2S)-3-(3-amino-8-azabicyclo[3.2.1]octan-8-yl)-1-(4-bromophenyl)-1,1-difluoro-3-oxopropan-2-yl)-6-((R)-sec-butoxy)naphthalene-2-sulfonamide]
  IC50: 10 to 30 µM

## NC1CC2CCC(C1)N2C(=O)C(NC(=O)C(=O)c1ccc(-c2ccc(F)cc2)cn1)C(F)(F)c1ccc(Br)cc1 (stereo not drawn) [Compound 14, N-(3-(3-amino-8-azabicyclo[3.2.1]octan-8-yl)-1-(4-bromophenyl)-1,1l-difluoro-3-oxopropan-2-yl)-2-(5-(4-fluorophenyl)pyridin-2-yl)-2-oxoacetamide trifluoroacetate]
  IC50: 30 to 100 µM

## NC1CC2CCC(C1)N2C(=O)[C@@H](NS(=O)(=O)c1ccc(OCc2ccc(Cl)cc2)cc1)C(F)(F)c1ccc(Br)cc1 (stereo partly drawn) [Compound 15-1, N-((2R)-3-(3-amino-8-azabicyclo[3.2.1]octan-8-yl)-1-(4-bromophenyl)-1,1-difluoro-3-oxopropan-2-yl)-4-((4-chlorobenzyl)oxy)benzenesulfonamide trifluoroacetate]
  IC50: 1 to 10 µM

## NC1CC2CCC(C1)N2C(=O)[C@H](NS(=O)(=O)c1ccc(OCc2ccc(Cl)cc2)cc1)C(F)(F)c1ccc(Br)cc1 (stereo partly drawn) [Compound 15-2, N-((2S)-3-(3-amino-8-azabicyclo[3.2.1]octan-8-yl)-1-(4-bromophenyl)-1,1-difluoro-3-oxopropan-2-yl)-4-((4-chlorobenzyl)oxy) benzenesulfonamide trifluoroacetate]
  IC50: 30 to 100 µM

## CC(C)c1ccc2cc(S(=O)(=O)N[C@H](C(=O)N3C4CCC3CC(N)C4)C(F)(F)c3ccc(Br)cc3)ccc2c1 (stereo partly drawn) [Compound 16-1, N-((2R)-3-(3-amino-8-azabicyclo[3.2.1]octan-8-yl)-1-(4-bromophenyl)-1,1-difluoro-3-oxopropan-2-yl)-6-isopropylnaphthalene-2-sulfonamide trifluoroacetate]
  IC50: 1 to 10 µM

## CC(C)c1ccc2cc(S(=O)(=O)N[C@@H](C(=O)N3C4CCC3CC(N)C4)C(F)(F)c3ccc(Br)cc3)ccc2c1 (stereo partly drawn) [Compound 16-2, N-((2S)-3-(3-amino-8-azabicyclo[3.2.1]octan-8-yl)-1-(4-bromophenyl)-1,1-difluoro-3-oxopropan-2-yl)-6-isopropylnaphthalene-2-sulfonamide trifluoroacetate]
  IC50: 30 to 100 µM

## NC1CC2CCC(C1)N2C(=O)[C@@H](NS(=O)(=O)c1cccc(OCc2ccc(F)cc2)c1)C(F)(F)c1ccc(Br)cc1 (stereo partly drawn) [Compound 17-1, N-((2R)-3-(3-amino-8-azabicyclo[3.2.1]octan-8-yl)-1-(4-bromophenyl)-1,1-difluoro-3-oxopropan-2-yl)-3-((4-fluorobenzyl)oxy)benzenesulfonamide trifluoroacetate]
  IC50: 30 to 100 µM

## NC1CC2CCC(C1)N2C(=O)[C@H](NS(=O)(=O)c1cccc(OCc2ccc(F)cc2)c1)C(F)(F)c1ccc(Br)cc1 (stereo partly drawn) [Compound 17-2, N-((2S)-3-(3-amino-8-azabicyclo[3.2.1]octan-8-yl)-1-(4-bromophenyl)-1,1-difluoro-3-oxopropan-2-yl)-3-((4-fluorobenzyl)oxy) benzenesulfonamide trifluoroacetate]
  IC50: 30 to 100 µM

## NC1CC2CCC(C1)N2C(=O)[C@@H](NS(=O)(=O)c1ccc(Oc2ccc(Cl)cn2)cc1)C(F)(F)c1ccc(Br)cc1 (stereo partly drawn) [Compound 18-1, N-((2R)-3-(3-amino-8-azabicyclo[3.2.1]octan-8-yl)-1-(4-bromophenyl)-1,1-difluoro-3-oxopropan-2-yl)-4-((5-chloropyridin-2-yl)oxy)benzenesulfonamide trifluoroacetate]
  IC50: 10 to 30 µM

## NC1CC2CCC(C1)N2C(=O)[C@H](NS(=O)(=O)c1ccc(Oc2ccc(Cl)cn2)cc1)C(F)(F)c1ccc(Br)cc1 (stereo partly drawn) [Compound 18-2, N-((2S)-3-(3-amino-8-azabicyclo[3.2.1]octan-8-yl)-1-(4-bromophenyl)-1,1-difluoro-3-oxopropan-2-yl)-4-((5-chloropyridin-2-yl)oxy) benzenesulfonamide trifluoroacetate]
  IC50: 30 to 100 µM

## CC(C)Oc1ccc2cc([C@H](O)C(=O)N[C@H](C(=O)N3C4CCC3CC(N)C4)C(F)(F)c3ccc(Br)cc3)ccc2c1 (stereo partly drawn) [Compound 19-3, (2S)—N-((2R)-3-(3-amino-8-azabicyclo[3.2.1]octan-8-yl)-1-(4-bromophenyl)-1,1-difluoro-3-oxopropan-2-yl)-2-hydroxy-2-(6-isopropoxynaphthalen-2-yl)acetamide trifluoroacetate]
  IC50: 1 to 10 µM

## CC(C)Oc1ccc2cc([C@@H](O)C(=O)N[C@H](C(=O)N3C4CCC3CC(N)C4)C(F)(F)c3ccc(Br)cc3)ccc2c1 (stereo partly drawn) [Compound 19-5, (2R)—N-((2R)-3-(3-amino-8-azabicyclo[3.2.1]octan-8-yl)-1-(4-bromophenyl)-1,1-difluoro-3-oxopropan-2-yl)-2-hydroxy-2-(6-isopropoxynaphthalen-2-yl)acetamide trifluoroacetate]
  IC50: 10 to 30 µM

## CC(C)Oc1ccc2cc([C@H](O)C(=O)N[C@@H](C(=O)N3C4CCC3CC(N)C4)C(F)(F)c3ccc(Br)cc3)ccc2c1 (stereo partly drawn) [Compound 19-6, (2S)—N-((2S)-3-(3-amino-8-azabicyclo[3.2.1]octan-8-yl)-1-(4-bromophenyl)-1,1-difluoro-3-oxopropan-2-yl)-2-hydroxy-2-(6-isopropoxynaphthalen-2-yl)acetamide trifluoroacetate]
  IC50: 30 to 100 µM
